# Test results from ChEMBL document CHEMBL3217580, “Structureactivity relationships of benzimidazole derivatives as antiparasitic agents: Dual activity-difference (DAD) maps” (Medchemcomm, 2011).
# Assays:
# Trichomonas vaginalis = test: Antimicrobial activity against Trichomonas vaginalis; assay type: functional, organism-based
# Giardia intestinalis = test: Antimicrobial activity against Giardia intestinalis; assay type: functional, organism-based, Giardia duodenalis; details: for IC50: Giardia duodenalis
# [1] = Trichomonas vaginalis, read-out: IC50
# [2] = Trichomonas vaginalis, read-out: pIC50 (converted)
compound,measurement,setting,value
CN(C)CCCSc1nc2c(Br)cc(Br)cc2[nH]1,pIC50,Trichomonas vaginalis,7.99
same,IC50,Trichomonas vaginalis; [1],11 nM
same,IC50,Trichomonas vaginalis; [2],10.2 nM
same,pIC50,Giardia intestinalis,7.69
same,IC50,Giardia intestinalis; read-out: IC50,20 nM
same,IC50,Giardia intestinalis; read-out: pIC50 (converted),20.4 nM
Clc1cc(Cl)c2nc(SCCN3CCCCC3)[nH]c2c1,pIC50,Trichomonas vaginalis,7.14
same,IC50,Trichomonas vaginalis; [2],72.4 nM
same,pIC50,Giardia intestinalis,7.26
same,IC50,Giardia intestinalis; read-out: pIC50 (converted),55 nM
Clc1cc(Cl)c2nc(SCCN3CCOCC3)[nH]c2c1,pIC50,Trichomonas vaginalis,7.29
same,IC50,Trichomonas vaginalis; [2],51.3 nM
same,pIC50,Giardia intestinalis,7.41
same,IC50,Giardia intestinalis; read-out: pIC50 (converted),38.9 nM
Brc1cc(Br)c2nc(SCCN3CCOCC3)[nH]c2c1,pIC50,Trichomonas vaginalis,7.23
same,IC50,Trichomonas vaginalis; [2],58.9 nM
same,pIC50,Giardia intestinalis,7.23
same,IC50,Giardia intestinalis; read-out: pIC50 (converted),58.9 nM
OCCSc1nc2c(Cl)cc(Cl)cc2[nH]1,pIC50,Trichomonas vaginalis,6.16
same,IC50,Trichomonas vaginalis; [2],692 nM
same,pIC50,Giardia intestinalis,7.42
same,IC50,Giardia intestinalis; read-out: pIC50 (converted),38 nM
OCCSc1nc2c(Br)cc(Br)cc2[nH]1,pIC50,Trichomonas vaginalis,6.83
same,IC50,Trichomonas vaginalis; [2],148 nM
same,pIC50,Giardia intestinalis,6.98
same,IC50,Giardia intestinalis; read-out: pIC50 (converted),105 nM
O=[N+]([O-])c1ccc(CCSc2nc3c(Cl)cc(Cl)cc3[nH]2)cc1,pIC50,Trichomonas vaginalis,7.96
same,IC50,Trichomonas vaginalis; [1],10 nM
same,IC50,Trichomonas vaginalis; [2],11 nM
same,pIC50,Giardia intestinalis,7.09
same,IC50,Giardia intestinalis; read-out: pIC50 (converted),81.3 nM
CCN(CC)CCSc1nc2c(Br)cc(Br)cc2[nH]1,pIC50,Trichomonas vaginalis,7.53
same,IC50,Trichomonas vaginalis; [1],29 nM
same,IC50,Trichomonas vaginalis; [2],29.5 nM
same,pIC50,Giardia intestinalis,7.46
same,IC50,Giardia intestinalis; read-out: pIC50 (converted),34.7 nM
CCCSc1ccc2[nH]c(C(F)(F)F)nc2c1,pIC50,Trichomonas vaginalis,6.46
same,IC50,Trichomonas vaginalis; [2],347 nM
same,pIC50,Giardia intestinalis,5.82
same,IC50,Giardia intestinalis; read-out: pIC50 (converted),1510 nM
CCN(CC)CCSc1nc2c(Cl)cc(Cl)cc2[nH]1,pIC50,Trichomonas vaginalis,7.39
same,IC50,Trichomonas vaginalis; [2],40.7 nM
same,pIC50,Giardia intestinalis,7.72
same,IC50,Giardia intestinalis; read-out: pIC50 (converted),19.1 nM
Brc1cc(Br)c2nc(SCCN3CCCCC3)[nH]c2c1,pIC50,Trichomonas vaginalis,7.69
same,IC50,Trichomonas vaginalis; [2],20.4 nM
same,pIC50,Giardia intestinalis,6.9
same,IC50,Giardia intestinalis; read-out: pIC50 (converted),126 nM
FC(F)(F)c1nc2c(Br)cc(Br)cc2[nH]1,pIC50,Trichomonas vaginalis,6.72
same,IC50,Trichomonas vaginalis; [2],191 nM
same,pIC50,Giardia intestinalis,6.6
same,IC50,Giardia intestinalis; read-out: pIC50 (converted),251 nM
CN(C)CCCSc1nc2c(Cl)cc(Cl)cc2[nH]1,pIC50,Trichomonas vaginalis,7.07
same,IC50,Trichomonas vaginalis; [1],85 nM
same,IC50,Trichomonas vaginalis; [2],85.1 nM
same,pIC50,Giardia intestinalis,7.14
same,IC50,Giardia intestinalis; read-out: IC50,72 nM
same,IC50,Giardia intestinalis; read-out: pIC50 (converted),72.4 nM
O=C(c1ccccc1)c1ccc2[nH]c(C(F)(F)F)nc2c1,pIC50,Trichomonas vaginalis,4.55
same,IC50,Trichomonas vaginalis; [1],28400 nM
same,IC50,Trichomonas vaginalis; [2],28200 nM
same,pIC50,Giardia intestinalis,5.64
same,IC50,Giardia intestinalis; read-out: IC50,2310 nM
same,IC50,Giardia intestinalis; read-out: pIC50 (converted),2290 nM
FC(F)(F)c1nc2cc(Br)ccc2[nH]1,pIC50,Trichomonas vaginalis,5.8
same,IC50,Trichomonas vaginalis; [2],1580 nM
same,pIC50,Giardia intestinalis,6.19
same,IC50,Giardia intestinalis; read-out: pIC50 (converted),646 nM
CN(C)CCSc1nc2c(Br)cc(Br)cc2[nH]1,pIC50,Trichomonas vaginalis,6.51
same,IC50,Trichomonas vaginalis; [2],309 nM
same,pIC50,Giardia intestinalis,7.54
same,IC50,Giardia intestinalis; read-out: pIC50 (converted),28.8 nM
FC(F)(F)c1nc2c(Br)c(Br)c(Br)cc2[nH]1,pIC50,Trichomonas vaginalis,6.57
same,IC50,Trichomonas vaginalis; [1],270 nM
same,IC50,Trichomonas vaginalis; [2],269 nM
same,IC50,Trichomonas vaginalis; read-out: IC50,270 nM
same,pIC50,Giardia intestinalis,6.85
same,IC50,Giardia intestinalis; read-out: pIC50 (converted),141 nM
O=[N+]([O-])c1ccc(CCSc2nc3c(Br)cc(Br)cc3[nH]2)cc1,pIC50,Trichomonas vaginalis,8.48
same,IC50,Trichomonas vaginalis; [1],3 nM
same,IC50,Trichomonas vaginalis; [2],3.31 nM
same,pIC50,Giardia intestinalis,7.43
same,IC50,Giardia intestinalis; read-out: pIC50 (converted),37.2 nM
CN(C)CCSc1nc2c(Cl)cc(Cl)cc2[nH]1,pIC50,Giardia intestinalis,7.68
same,IC50,Giardia intestinalis; read-out: pIC50 (converted),20.9 nM
